Source: patent US20120149657A1, “2'-FLUORO ARABINO NUCLEOSIDES AND USE THEREOF” (Southern Research Institute, priority 2009, published 2012)
Marks after values point to notes of the source that are not given here.

How the values were obtained:
CCRF-CEM leukemia = assay: In vitro cytotoxicity (MTS, 72 h), CCRF-CEM; format: cell-based, human; settings: for IC50: Homo sapiens, CCRF-CEM, 72 hours of incubation
Experimental: (§1) The concentration of compound required to inhibit cell growth by 50% (IC50) after 72 hours of incubation was determined for each unprotected analog with eight human tumor cell lines (SNB-7 CNS, DLD-1 colon, CCRF-CEM leukemia, NCI-H23 NSCL, ZR-75-1 breast, LOX melanoma, PC-3 prostate, and CAKI-1 renal). […] The α-anomers of these compounds were also screened but were not found to be cytotoxic (data not shown).
(§2) CCRF-CEM cells are a T-cell leukemia cell line that is known to be very sensitive to nucleoside analogs.
(§3) All cell lines were grown in RPMI 1640 medium containing 10% fetal bovine serum, sodium bicarbonate, and 2 mM L-glutamine. For in vitro evaluation of the sensitivity of these cell lines to compounds, cells were plated in 96-well microtiter plates and then were exposed continuously to various concentrations of the compounds for 72 h at 37° C. Cell viability was measured using the MTS assay [3-(4,5-dimethylthiazol-2-yl)-5-(3-carboxymethoxyphenyl)-2-(4-sulfophenyl)-2H-tetrazolium, inner salt; MTS and an electron coupling reagent (phenazine ethosulfate; PES)]. Absorbance was read at 490 nm. The background absorbance mean was subtracted from the data followed by conversion to percent of control. The drug concentrations producing survival just above and below 50% level were used in a linear regression analysis to calculate the IC50.

[1] = test system: cells that lacked dCyd kinase; assay: Cytotoxicity in cells that lacked dCyd kinase; format: cell-based
Excerpt: as §2

CCRF-CEM cells = assay: Intracellular triphosphate in CCRF-CEM cells; format: cell-based, human
Experimental: CCRF-CEM cells were incubated with methyl-F-araC, araC, and gemcitabine, and the amount of intracellular triphosphate (TP) of each compound was determined.
CCRF-CEM cell extracts were collected by centrifugation and resuspended in ice-cold 0.5 M perchloric acid. The samples were centrifuged at 12,000×g, and the supernatant fluid was neutralized and buffered by adding 4 M KOH and 1 M potassium phosphate, pH 7.4. KClO4 was removed by centrifugation, and a portion of the supernatant fluid was injected onto a strong anion exchange HPLC (Bio Basic anion exchange column, Thermo Electron Corp., Bellefonte, Pa.). Nucleotides were eluted with a 30-min linear salt and pH gradient from 6 mM ammonium phosphate (pH 2.8) to 900 mM ammonium phosphate (pH 6). Peaks were detected as they eluted from the column by their absorbance at 254 nm.

CAKI-1 renal [2] = assay: CAKI-1 renal tumor xenograft, sc, in nude mice; format: in vivo, female NCr-nu athymic mice
Experimental: (§4) Because of its potent in vitro activity, methyl-F-araC (13) was evaluated for in vivo activity against three solid tumor xenografts (CAKI-1 renal, NCI-H23 NSCL, and LOX melanoma). Prior to these studies the maximally tolerated dose of methyl-F-araC was determined to be 3 mg/kg given once per day for 9 consecutive days. […] Female NCr-nu athymic mice were implanted subcutaneously with CAKI-1 tumor fragments. When tumors were approximately 100-250 mg, mice were treated ip with methyl-F-araC at 1, 2, or 3 mg/kg/dose (1 treatment each day for 9 consecutive days starting on day 14). Each treatment group contained 6 mice. The tumors were measured with calipers twice each week, and the weight (mg) was calculated. In this experiment there were 3 of 6 tumor-free survivors at the end of the experiment (62 days post implant) in each treatment group. Good results were also seen against NCI-H23 and LOX human tumor xenografts (Table 2).
(§5) Xenografts were implanted sc on the flanks of female nude mice. When tumors were approximately 100-250 mg, they were treated ip with 3 or 4 mg/kg/dose of methyl-F-araC (q1d×9) and tumor size was measured twice weekly thereafter. Tumor-free survivors are the number of mice that were tumor-free at the end of the experiment/total number of mice in the treatment group. ^aThe difference in the median of times poststaging for tumors of the treated (T) and control (C) groups to double in mass three times. ^bThe difference in the median of times poststaging for tumors of the treated (T) and control (C) groups to double in mass two times. ^cThe difference in the median of times poststaging for tumors of the treated (T) and control (C) groups to double in mass four times.
Mice, obtained from various commercial suppliers, were housed in microisolator cages and were allowed commercial mouse food and water ad libitum. The three human tumors were obtained from the Developmental Therapeutics Program Tumor Repository (Frederick, Md.) and were maintained in in vivo passage. Only tumor lines that tested negative for selected viruses were used. For the in vivo evaluation of the sensitivity of human tumors to the compounds, female NCr-nu athymic mice were implanted subcutaneously (sc) with 30-40 mg tumor fragments. In each experiment, methyl-F-araC (13) was tested at three dosage levels. […]
(§6) Antitumor activity was assessed on the basis of delay in tumor growth (T-C). […] Tumors were measured in two dimensions (length and width) twice weekly, and the tumor weight was calculated using the formula (length×width^2)/2 and assuming unit density. […]

SNB-7 CNS = assay: In vitro cytotoxicity (MTS, 72 h), SNB-7; format: cell-based; settings: Homo sapiens; SNB-7, 72 hours of incubation
Experimental: as §1, §3

NCI-H23 NSCL [3] = assay: In vitro cytotoxicity (MTS, 72 h), NCI-H23; format: cell-based; settings: Homo sapiens; NCI-H23, 72 hours of incubation
Experimental: as §1, §3

DLD-1 colon = assay: In vitro cytotoxicity (MTS, 72 h), DLD-1; format: cell-based; settings: Homo sapiens; DLD-1, 72 hours of incubation
Experimental: as §1, §3

LOX melanoma [4] = assay: LOX melanoma tumor xenograft, sc, in nude mice; format: in vivo, female NCr-nu athymic mice
Experimental: as §4, §5
(§7) Mice, obtained from various commercial suppliers, were housed in microisolator cages and were allowed commercial mouse food and water ad libitum. […]
as §6

[5] = test system: eight human tumor cell lines; assay: In vitro cytotoxicity, panel of eight human tumor cell lines; format: cell-based
Experimental: as §1, §3

ZR-75-1 breast = assay: In vitro cytotoxicity (MTS, 72 h), ZR-75-1; format: cell-based; settings: Homo sapiens; ZR-75-1, 72 hours of incubation
Experimental: as §1, §3

PC-3 prostate = assay: In vitro cytotoxicity (MTS, 72 h), PC-3; format: cell-based; settings: Homo sapiens; PC-3, 72 hours of incubation
Experimental: as §1, §3

NCI-H23 NSCL [6] = assay: NCI-H23 NSCL tumor xenograft, sc, in nude mice; format: in vivo, female NCr-nu athymic mice
Experimental: as §4, §5, §7, §6

Maximally tolerated dose = format: in vivo, mice; settings: once per day for 9 consecutive days
Experimental: as §4

CAKI-1 renal [7] = assay: In vitro cytotoxicity (MTS, 72 h), CAKI-1; format: cell-based; settings: Homo sapiens; CAKI-1, 72 hours of incubation
Experimental: as §1, §3

LOX melanoma [8] = assay: In vitro cytotoxicity (MTS, 72 h), LOX; format: cell-based; settings: Homo sapiens, 72 hours of incubation
Experimental: as §1, §3

[9] = 3 mg/kg/dose ip q1d×9, tumor-free/total at end of experiment

Compound: C[C@]1(CO)O[C@@H](n2cnc3c(N)nc(N)nc32)[C@@H](F)[C@@H]1O [Compound 21, 2,6-Diamino-9-(2-deoxy-2-fluoro-4-C-methyl-β-D-arabinofuranosyl)purine]
- IC50 (CCRF-CEM leukemia): ~500 nM
- cytotoxicity with addition of deoxycoformycin (CCRF-CEM leukemia; deoxycoformycin (adenosine deaminase inhibitor) added): prevented
- melting point: 270 °C (dec.)

Compound: C[C@]1(CO)O[C@@H](n2cnc3c(=O)[nH]c(N)nc32)[C@@H](F)[C@@H]1O [Compound 22, 9-(2-Deoxy-2-fluoro-4-C-methyl-β-D-arabinofuranosyl)guanine]
- IC50 (CCRF-CEM leukemia): ~500 nM

Compound: C[C@]1(CO)O[C@@H](n2cnc3c(N)nc(Cl)nc32)[C@@H](F)[C@@H]1O [Compound 24, 2-Chloro-9-(2-deoxy-2-fluoro-4-C-methyl-β-D-arabinofuranosyl)adenine]
- IC50 (CCRF-CEM leukemia): ~500 nM
- inhibition of CCRF-CEM cell growth with dCyd added to the culture medium (CCRF-CEM leukemia): prevented
- activity in cells that lacked dCyd kinase [1]: neither compound was active

Compound: Nc1ccn([C@@H]2O[C@H](CO)[C@@H](O)[C@@H]2O)c(=O)n1 [araC]
- intracellular concentration of triphosphate (CCRF-CEM cells; 100 nM of compound, two hours, mean±SD, N=3): 12±1 pmoles/10^6 cells
- intracellular half-life of triphosphate (CCRF-CEM cells; CCRF-CEM cells, N=2): 5.6 h

Compound: Nc1ccn([C@@H]2O[C@H](CO)[C@@H](O)C2(F)F)c(=O)n1 [gemcitabine]
- intracellular concentration of triphosphate (CCRF-CEM cells; human, 2 h, 100 nM): 17±3 pmoles/10^6 cells

Compound: C[C@]1(CO)O[C@@H](n2ccc(N)nc2=O)[C@@H](F)[C@@H]1O [methyl-F-araC, 1-(2-Deoxy-2-fluoro-4-C-methyl-β-D-arabinofuranosyl)cytosine]
- IC50 (CCRF-CEM leukemia): 12 ± 3 nM
- inhibition of CCRF-CEM cell growth with dCyd added to the culture medium (CCRF-CEM leukemia): prevented
- T-C (days) (CAKI-1 renal [2]; 3 mg/kg/dose ip q1d×9, time to double in mass three times): >34.6^a days
- Tumor-free survivors (CAKI-1 renal [2]; [9]): 3/6
- tumor-free survivors in each treatment group (CAKI-1 renal [2]; 1, 2, or 3 mg/kg/dose ip, 9 days from day 14, 62 days post implant): 3 of 6
- in vivo activity (in words) (CAKI-1 renal [2]; CAKI-1 tumors, FIG. 1): excellent activity
- IC50 (SNB-7 CNS): > 200000 nM
- IC50 (NCI-H23 NSCL [3]): 190 ± 10 nM
- IC50 (DLD-1 colon): > 200000 nM
- T-C (days) (LOX melanoma [4]; 3 mg/kg/dose ip q1d×9, time to double in mass four times): 15.0^c days
- Tumor-free survivors (LOX melanoma [4]; [9]): 0/6
- in vivo activity (in words) (LOX melanoma [4]; LOX xenograft): Good results
- cytotoxicity (in words) [5]: significant cytotoxicity against four of the cell lines
- intracellular concentration of triphosphate (CCRF-CEM cells; human, 2 h, 100 nM): 16±2 pmoles/10^6 cells
- IC50 (ZR-75-1 breast): > 200000 nM
- IC50 (PC-3 prostate): > 200000 nM
- T-C (days) (NCI-H23 NSCL [6]; 4 mg/kg/dose ip q1d×9, time to double in mass two times): 18.4^b days
- Tumor-free survivors (NCI-H23 NSCL [6]; 4 mg/kg/dose ip q1d×9, tumor-free/total at end of experiment): 0/5
- in vivo activity (in words) (NCI-H23 NSCL [6]; NCI-H23 xenograft): Good results
- maximally tolerated dose (Maximally tolerated dose): 3 mg/kg
- IC50 (CAKI-1 renal [7]): 540 ± 580 nM
- IC50 (LOX melanoma [8]): 240 ± 150 nM
- activity in cells that lacked dCyd kinase [1]: neither compound was active
